Assay results from article PMC11507441, “Oilseed Cakes: A Promising Source of Antioxidant, and Anti-Inflammatory Agents—Insights from Lactuca sativa” (International Journal of Molecular Sciences, 2024).
Values after ≈ are worked out from the molar mass of the structure shown.

Columns and labels:
dermal inflammation = assay: Histopathological assessment of paw skin tissue (carrageenan model); format: in vivo, rat; conditions: 5 h after carrageenan
Source text: Five hours following the carrageenan injection, tissue specimen samples from the paw skin tissue of every group under study were removed for histological examination. Prior to being submerged in paraffin blocks, they were fixed in a 10% formalin solution and stained with hematoxylin-eosin. Using a microtome, paraffin sections with a thickness of 5 µm were cut, and hematoxylin and eosin were frequently applied to the sections. Microscopically, these tissue slices were inspected. Consequently, the sections were examined under a light microscope; on the other hand, photos taken with a digital camera (Canon Power-shot D10) recorded the progression of paw oedema.

P. aeruginosa = assay: Antimicrobial screening, zone of inhibition; format: cell-based; conditions: Table 1
Procedure: The procedure was performed according to Stylianakis et al.. A comparison of the extract’s zone of inhibition to that of a reference antibiotic’s activity index was determined using the following equation:Activity index = (the inhibition zone of extract/the inhibition zone of the standard) × 100

MCF-7 cancer cell line = assay: Cytotoxic activity (MTT assay); format: cell-based
Procedure: (§1) The HPLC was performed in the Institute for Plant Biology, TU Braunschweig, using a Young Lin quaternary pump, vacuum degasser, column oven (40 °C), diode array detector (YL9160 PDA), and a Midas Spark Holland autosampler. UV spectra (λ max) were measured in the central laboratory of the Faculty of Pharmaceutical Science at Mansoura University using spectroscopic methanol with an ultraviolet-visible spectrophotometer (Shimadzu 1601 PC, version TCC-240A, Kyoto, Japan). The NMR unit of Mansoura University’s Faculty of Pharmacy obtained nuclear magnetic resonance spectra (^1H-NMR, ^13C-NMR, DEPT-Q, APT, HSQC, and HMBC) using a Bruker DRX 600 NMR spectrometer (600 and 150 MHz for ^1H and ^13C-NMR, respectively) and with the Bruker Corporation Avance III 400 spectrometer, which measures ^1H and ^13C-NMR at 400 and 100 MHz, respectively. The types of solvents that are used are CDCl3, CD3OD, and DMSO-d6. For normal phase chromatography, silica gel G 60–230 mesh (Merck, Darmstadt, Germany) was packed using a wet or dry method in the specified solvent. The purchase of Normal Human lung fibroblast (WI-38), hepatic cancer cell lines (HePG-2), and mammary gland (MCF-7) cell lines from ATCC was made possible by the Holding firm for biological goods and vaccines (VACSERA), which is based in Cairo, Egypt.
(§2) Using the MTT test, the inhibitory effects of substances on cell growth were ascertained using the cell lines compared to normal lung fibroblast cells (WI-38). The selectivity index was calculated via the Selectivity index (SI) equation: SI equals IC50 normal/IC50 cancer.

HepG-2 cancer cell line = assay: Cytotoxic activity (MTT assay); format: cell-based
Procedure: as §1, §2

[1] = IC50 normal (WI-38)/IC50 cancer

## NC(CO)C(O)c1ccc2c(c1)OCO2 (centres unmarked) [Compound 1, 1,3-propanediol-2-amino-1-(3′,4′-methylenedioxyphenyl)]
Dermal inflammation; Group 6, 40 mg/kg
  Histopathology of paw skin (H&E): substantial reduction in dermal inflammation
Dermal inflammation; oral 20 mg/kg
  Histopathology of paw skin (H&E): moderate decrease in both inflammation and leukocyte infiltration
P. aeruginosa; Pseudomonas aeruginosa, isolated compounds 1 mg/mL, read-out: P. aeruginosa Diameter of Inhibition Zone (mm)
  zone of inhibition at 1000 µg/mL: 3.8 ± 0.2 mm
P. aeruginosa; 1 mg/mL, relative to ciprofloxacin
  P. aeruginosa %Activity Index: 16.5%
MCF-7 cancer cell line; Homo sapiens, MCF7, MTT, read-out: In Vitro Cytotoxicity IC50 (µg/mL) MCF-7
  IC50: 86.8 ± 3.9 µg/mL (≈ 411 µM)
MCF-7 cancer cell line; [1]
  Selectivity Index MCF-7: 0.71
HepG-2 cancer cell line; Homo sapiens, HepG2, MTT, read-out: In Vitro Cytotoxicity IC50 (µg/mL) HepG-2
  IC50: 82.8 ± 4.1 µg/mL (≈ 392 µM)
HepG-2 cancer cell line; [1]
  Selectivity Index HepG2: 0.75
